According to ChEMBL document CHEMBL5678805, “Intermittent administration of MEK inhibitor GDC-0973 plus PI3K inhibitor GDC-0941 triggers robust apoptosis and tumor growth inhibition” (Cancer Res, 2012):
The source made the active and inactive calls. The rule behind the calls is not given here.

Legend:
[1] = system: A2058; experiment: Antitumor activity against human A2058 cells harboring BRAF V600E/PTEN deletion mutant xenografted in mouse assessed as decrease in tumor volume at 1.5 mg/kg, po administered once daily for 21 days in presence of GDC-0973 by digital calipers analysis; assay type: functional, organism-based; details: time 21.0 day
[2] = system: A2058; experiment: Antitumor activity against human A2058 cells harboring BRAF V600E/PTEN deletion mutant xenografted in mouse assessed as decrease in tumor volume at 10 mg/kg, po administered once weekly for 21 days in presence of GDC-0973 by digital calipers analysis; assay type: functional, organism-based; details: time 21.0 day
[3] = system: A2058; experiment: Antitumor activity against human A2058 cells xenografted in mouse assessed as tumor growth inhibition at 100 mg/kg, po administered once a day for 21 days; assay type: functional; details: A2058, 504 h, time 21 day, read-out: TGI
[4] = Antitumor activity against human A375.X1 cells xenografted in mouse assessed as tumor growth inhibition at 30 mg/kg, po administered once a day for 21 days in presence of (S)-(3,4-difluoro-2-((2-fluoro-4-iodophenyl)amino)phenyl)(3-hydroxy-3-(piperidin-2-yl)azetidin-1-yl)methanone; assay type: functional; details: A375.X1, 504 h, time 21 day, read-out: TGI
[5] = system: DLD-1; experiment: Antitumor activity against human DLD-1 cells xenografted in mouse assessed as tumor growth inhibition at 50 mg/kg, po administered every third day for 21 days in presence of (S)-(3,4-difluoro-2-((2-fluoro-4-iodophenyl)amino)phenyl)(3-hydroxy-3-(piperidin-2-yl)azetidin-1-yl)methanone; assay type: functional; details: DLD-1, 504 h, time 21 day, read-out: TGI
[6] = system: DLD-1; experiment: Antitumor activity against human DLD-1 cells xenografted in mouse assessed as tumor growth inhibition at 50 mg/kg, po administered every third day for 21 days; assay type: functional; details: DLD-1, 504 h, time 21 day, read-out: TGI
[7] = system: NCI-H2122; experiment: Antitumor activity against human NCI-H2122 cells xenografted in mouse assessed as tumor growth inhibition at 30 mg/kg, po administered once a day for 21 days in presence of (S)-(3,4-difluoro-2-((2-fluoro-4-iodophenyl)amino)phenyl)(3-hydroxy-3-(piperidin-2-yl)azetidin-1-yl)methanone; assay type: functional; details: NCI-H2122, 504 h, time 21 day, read-out: TGI
[8] = system: NCI-H2122; experiment: Antitumor activity against human NCI-H2122 cells xenografted in mouse assessed as tumor growth inhibition at 30 mg/kg, po administered once a day for 21 days; assay type: functional; details: NCI-H2122, 504 h, time 21 day, read-out: TGI
[9] = Antitumor activity against human A375.X1 cells xenografted in mouse assessed as tumor growth inhibition at 100 mg/kg, po administered once a day for 21 days; assay type: functional; details: A375.X1, 504 h, time 21 day, read-out: TGI
[10] = Antitumor activity against human A375.X1 cells xenografted in mouse assessed as tumor growth inhibition at 150 mg/kg, po administered every third day for 21 days; assay type: functional; details: A375.X1, 504 h, time 21 day, read-out: TGI
[11] = system: NCI-H2122; experiment: Antitumor activity against human NCI-H2122 cells xenografted in mouse assessed as tumor growth inhibition at 100 mg/kg, po administered once a day for 21 days; assay type: functional; details: NCI-H2122, 504 h, time 21 day, read-out: TGI
[12] = Antitumor activity against human A375.X1 cells xenografted in mouse assessed as tumor growth inhibition at 30 mg/kg, po administered once a day for 21 days; assay type: functional; details: A375.X1, 504 h, time 21 day, read-out: TGI
[13] = system: A2058; experiment: Antitumor activity against human A2058 cells xenografted in mouse assessed as tumor growth inhibition at 150 mg/kg, po administered every third day for 21 days; assay type: functional; details: A2058, 504 h, time 21 day, read-out: TGI
[14] = system: A2058; experiment: Antitumor activity against human A2058 cells xenografted in mouse assessed as tumor growth inhibition at 30 mg/kg, po administered once a day for 21 days in presence of (S)-(3,4-difluoro-2-((2-fluoro-4-iodophenyl)amino)phenyl)(3-hydroxy-3-(piperidin-2-yl)azetidin-1-yl)methanone; assay type: functional; details: A2058, 504 h, time 21 day, read-out: TGI
[15] = system: NCI-H2122; experiment: Antitumor activity against human NCI-H2122 cells xenografted in mouse assessed as tumor growth inhibition at 150 mg/kg, po administered […] for 21 days; assay type: functional; details: NCI-H2122, 504 h, time 21 day, read-out: TGI
[16] = Antitumor activity against human A375.X1 cells xenografted in mouse assessed as tumor growth inhibition at 150 mg/kg, po administered every third day for 21 days in presence of (S)-(3,4-difluoro-2-((2-fluoro-4-iodophenyl)amino)phenyl)(3-hydroxy-3-(piperidin-2-yl)azetidin-1-yl)methanone; assay type: functional; details: A375.X1, 504 h, time 21 day, read-out: TGI
[17] = system: NCI-H2122; experiment: Antitumor activity against human NCI-H2122 cells xenografted in mouse assessed as tumor growth inhibition at 100 mg/kg, po administered once a day for 21 days in presence of (S)-(3,4-difluoro-2-((2-fluoro-4-iodophenyl)amino)phenyl)(3-hydroxy-3-(piperidin-2-yl)azetidin-1-yl)methanone; assay type: functional; details: NCI-H2122, 504 h, time 21 day, read-out: TGI
[18] = system: DLD-1; experiment: Antitumor activity against human DLD-1 cells xenografted in mouse assessed as tumor growth inhibition at 30 mg/kg, po administered once a day for 21 days in presence of (S)-(3,4-difluoro-2-((2-fluoro-4-iodophenyl)amino)phenyl)(3-hydroxy-3-(piperidin-2-yl)azetidin-1-yl)methanone; assay type: functional; details: DLD-1, 504 h, time 21 day, read-out: TGI
[19] = Antitumor activity against human A375.X1 cells xenografted in mouse assessed as tumor growth inhibition at 100 mg/kg, po administered once a day for 21 days in presence of (S)-(3,4-difluoro-2-((2-fluoro-4-iodophenyl)amino)phenyl)(3-hydroxy-3-(piperidin-2-yl)azetidin-1-yl)methanone; assay type: functional; details: A375.X1, 504 h, time 21 day, read-out: TGI
[20] = system: NCI-H2122; experiment: Antitumor activity against human NCI-H2122 cells xenografted in mouse assessed as tumor growth inhibition at 150 mg/kg, po administered […] for 21 days in presence of (S)-(3,4-difluoro-2-((2-fluoro-4-iodophenyl)amino)phenyl)(3-hydroxy-3-(piperidin-2-yl)azetidin-1-yl)methanone; assay type: functional; details: NCI-H2122, 504 h, time 21 day, read-out: TGI
[21] = system: DLD-1; experiment: Antitumor activity against human DLD-1 cells xenografted in mouse assessed as tumor growth inhibition at 30 mg/kg, po administered once a day for 21 days; assay type: functional; details: DLD-1, 504 h, time 21 day, read-out: TGI
[22] = system: A2058; experiment: Antitumor activity against human A2058 cells xenografted in mouse assessed as tumor growth inhibition at 30 mg/kg, po administered once a day for 21 days; assay type: functional; details: A2058, 504 h, time 21 day, read-out: TGI

For `Cc1c(CN2CCN(C(=O)[C@H](C)O)CC2)sc2c(N3CCOCC3)nc(-c3cnc(N)nc3)nc12`, the Activity [1] was “Active” and the Activity [2] was “Active”.

`CS(=O)(=O)N1CCN(Cc2cc3nc(-c4cccc5[nH]ncc45)nc(N4CCOCC4)c3s2)CC1` [PICTILISIB] gave an inhibition in vivo at 100 mg/kg [3] of 58%, an inhibition in vivo at 30 mg/kg [4] of 69% and an inhibition in vivo at 50 mg/kg [5] of 72%. It also gave an inhibition in vivo at 50 mg/kg [6] of 13%, an inhibition in vivo at 30 mg/kg [7] of 75% and an inhibition in vivo at 30 mg/kg [8] of 63%. For the same molecule, the inhibition in vivo at 100 mg/kg [9] was -2%, the inhibition in vivo at 150 mg/kg [10] was 57% and the inhibition in vivo at 100 mg/kg [11] was 91%. The inhibition in vivo at 30 mg/kg [12] was 23%, the inhibition in vivo at 150 mg/kg [13] was 50% and the inhibition in vivo at 30 mg/kg [14] was 73%. The inhibition in vivo at 150 mg/kg [15] was 43%, the inhibition in vivo at 150 mg/kg [16] was 118% and the inhibition in vivo at 100 mg/kg [17] was 156%. The inhibition in vivo at 30 mg/kg [18] was 88%, the inhibition in vivo at 100 mg/kg [19] was 122% and the inhibition in vivo at 150 mg/kg [20] was 87%. It also gave an inhibition in vivo at 30 mg/kg [21] of 63% and an inhibition in vivo at 30 mg/kg [22] of 24%.
